In experiment [1] the test system is MHC class I (H-2Kd). Briefly: MHC class I (H-2Kd) on tumor by flow cytometry (anti-PD-1 study). Type of experiment: in vivo, Balb/c mice. Conditions: tumor on 23rd day, CD45-negative H-2Kd-positive fraction; Compound 1 5 mg/kg iv, anti-PD-1 antibody 200 μg ip. How it is done:
1×10^6 Cells of murine colon cancer cell line CT26 (ATCC) were transplanted to the ventral flank of 48 female 6-week-old Balb/c mice. Five days later, the mice were divided into four groups. In vehicle administration group, saline was intravenously administered once a week, and 200 μg of Rat IgG2a isotype control antibody (Bioxcell) was intraperitoneally administered twice a week. In Compound 1 administration group, Compound 1 was intravenously administered in a dose of 5 mg/kg once a week, and 200 μg of Rat IgG2a isotype control antibody (Bioxcell) was intraperitoneally administered twice a week. In anti-PD-1 antibody administration group, 200 μg of anti-PD-1 antibody (Bioxcell) was intraperitoneally administered twice a week. In combination group of Compound 1 and anti-PD-1 antibody, Compound 1 was intravenously administered in a dose of 5 mg/kg once a week, and 200 μg of anti-PD-1 antibody (Bioxcell) was intraperitoneally administered twice a week. After the transplantation of the tumor cell, the tumor was picked out on the 23rd day, and a cell suspension of the tumor was prepared by using a tumor dissociation kit (Miltenyi) and a gentle macs dissociater (Miltenyi). The cell suspension was stained with fluoresceinated anti-CD45 antibody and anti-H-2Kd antibody, and H-2Kd on the cancer cell was detected as CD45-negative and H-2Kd-positive fractions by flow cytometry method.

Experiment [2] concerns effector memory T cell. Briefly: Ratio of effector memory T cell in CD8-positive tumor-infiltrating lymphocytes by FACS (anti-PD-1 study). It counts as in vivo, Balb/c mice. Conditions: tumor on 23rd day, CD8+ CD62L- CD127+, compared with the vehicle administration group, Compound 1 5 mg/kg iv, anti-PD-1 antibody 200 μg ip. How it is done:
(§1) 1×10^6 Cells of murine colon cancer cell line CT26 (ATCC) were transplanted to the ventral flank of 48 female 6-week-old Balb/c mice. Five days later, the mice were divided into four groups. In vehicle administration group, saline was intravenously administered once a week, and 200 μg of Rat IgG2a isotype control antibody (Bioxcell) was intraperitoneally administered twice a week. In Compound 1 administration group, Compound 1 was intravenously administered in a dose of 5 mg/kg once a week, and 200 μg of Rat IgG2a isotype control antibody (Bioxcell) was intraperitoneally administered twice a week. In anti-PD-1 antibody administration group, 200 μg of anti-PD-1 antibody (Bioxcell) was intraperitoneally administered twice a week. In combination group of Compound 1 and anti-PD-1 antibody, Compound 1 was intravenously administered in a dose of 5 mg/kg once a week, and 200 μg of anti-PD-1 antibody (Bioxcell) was intraperitoneally administered twice a week. After the transplantation of the tumor cell, the tumor was picked out on the 23rd day, and a cell suspension of the tumor was prepared by using a tumor dissociation kit (Miltenyi) and a gentle macs dissociates (Miltenyi). […] The obtained cell suspension was stained with fluoresceinated anti-CD8, anti-CD62L, and anti-CD127 antibodies, and analyzed by flow cytometry (FACS) method. […]
Background: In flow cytometry, cells or beads pass a laser one at a time.

Experiment [3] deals with murine colon cancer cell line CT26. Briefly: Antitumor activity of combination use of anti-CTLA-4 antibody and TLR7 agonist (tumor volume). It counts as in vivo. As to conditions: CT26 in Balb/c mice, until 23rd day; Compound 1 5 mg/kg iv once a week, anti-CTLA-4 antibody 200 μg ip twice a week; versus vehicle administration group. How it is done: 1×10^6 Cells of murine colon cancer cell line CT26 (ATCC) were transplanted to the ventral flank of 40 female 7-week-old Balb/c mice. Seven days later, the mice were divided into four groups. In vehicle administration group, saline was intravenously administered once a week, and 200 μg of Rat IgG2a isotype control antibody (Bioxcell) was intraperitoneally administered twice a week. In TLR7 agonist administration group, Compound 1 was intravenously administered in a dose of 5 mg/kg once a week, and 200 μg of Rat IgG2a isotype control antibody (Bioxcell) was intraperitoneally administered twice a week. In anti-CTLA-antibody administration group, 200 μg of anti-CTLA-4 antibody (Bioxcell) was intraperitoneally administered twice a week. In combination group of Compound 1 and anti-CTLA-4 antibody, Compound 1 was intravenously administered in a dose of 5 mg/kg once a week, and 200 μg of anti-CTLA-4 antibody (Bioxcell) was intraperitoneally administered twice a week. After the transplantation of the tumor cell, the tumor volume was measured twice a week, and the body weight was checked once a week until the 23rd day. The tumor volume was obtained by measuring long axis and short axis of the tumor and calculating by a math formula of (short axis)×(short axis)×(long axis)×0.5.
The ordinate denotes tumor volume, and the abscissa denotes elapsed days from the transplantation of the tumor cell.

Experiment [4] shares this test system. In words: Antitumor activity of combination use of anti-PD-1 antibody and TLR7 agonist (tumor volume). Type of experiment: in vivo. Conditions: CT26 in Balb/c mice, until 23rd day; Compound 1 5 mg/kg iv once a week, anti-PD-1 antibody 200 μg ip twice a week; versus vehicle administration group. How it is done:
1×10^6 Cells of murine colon cancer cell line CT26 (ATCC) were transplanted to the ventral flank of 48 female 6-week-old Balb/c mice. Five days later, the mice were divided into four groups. In vehicle administration group, saline was intravenously administered once a week, and 200 μg of Rat IgG2a isotype control antibody (Bioxcell) was intraperitoneally administered twice a week. In TLR7 agonist administration group, a TLR7 agonist, N-{4-[(2-amino-4-{[(3S)-1-hydroxyhexan-3-yl]amino}-6-methylpyrimidin-5-yl)methyl]-3-methoxybenzyl}-N-(2,2,2-trifluoroethyl)glycine (hereinafter, referred to as “Compound 1”) was administered into a vein in a dose of 5 mg/kg once a week, and 200 μg of Rat IgG2a isotype control antibody (Bioxcell) was intraperitoneally administered twice a week. In anti-PD-1 antibody administration group, 200 μg of anti-PD-1 antibody (Bioxcell) was intraperitoneally administered twice a week. In combination group of Compound 1 and anti-PD-1 antibody, Compound 1 was intravenously administered in a dose of 5 mg/kg once a week, and 200 μg of anti-PD-1 antibody (Bioxcell) was intraperitoneally administered twice a week. After the transplantation of the tumor cell, the tumor volume was measured twice a week, and the body weight was checked once a week until the 23rd day. […]

The subject of experiment [5] is effector memory T cell. In words: Ratio of effector memory T cell in CD8-positive tumor-infiltrating lymphocytes by FACS (anti-CTLA-4 study). Type of experiment: in vivo, Balb/c mice. Conditions: tumor on 26th day, CD8+ CD62L- CD127+, compared with the vehicle administration group, Compound 1 5 mg/kg iv, anti-CTLA-4 antibody 200 μg ip. How it is done:
as §1, with “40” for “48”, “Seven” for “Five”, “anti-CTLA-4” for “anti-PD-1”, “26th” for “23rd”, “dissociater” for “dissociates”

For `CCC[C@@H](CCO)Nc1nc(N)nc(C)c1Cc1ccc(CN(CC(=O)O)CC(F)(F)F)cc1OC` [Compound 1, N-{4-[(2-amino-4-{[(3S)-1-hydroxyhexan-3-yl]amino}-6-methylpyrimidin-5-yl)methyl]-3-methoxybenzyl}-N-(2,2,2-trifluoroethyl)glycine], in experiment [1], the “mean fluorescent intensity (MFI) of H-2Kd” value was “not so different from that of the vehicle administration group”. Also, the “ratio of effector memory T cell in CD8-positive cell” value in experiment [2] and in experiment [5] was “did not increase” throughout. Further, the “tumor-volume variation / tumor growth inhibition” value in experiment [3] was “not so different from that of the vehicle administration group”; in experiment [4], “tumor growth inhibition was observed”.
